Measured values as given in patent EP1174424A1, “3-[…] D DERIVATIVES” (CHUGAI SEIYAKU KABUSHIKI KAISHA, priority 1999, dated 2000).

These compounds were tested against T1, Bovine thymus 1α,25-dihydroxy vitamin D3 receptor (Bos taurus, UniProt Q28037) (assay: Assay for binding to vitamin D receptor (VDR); displacement of [3H]-1α,25-dihydroxy vitamin D3). Conditions: relative value, with that of 1α,25-dihydroxy vitamin D3 taken as 100; [3H]-1α,25-dihydroxy vitamin D3 at 0.1 nM, overnight at 4°C.
T1 construct: Bovine thymus 1α,25-dihydroxy vitamin D3 receptor was purchased from YAMASA BIOCHEMICAL; purchased YAMASA BIOCHEMICAL (Choshi, Chiba, Japan); host or cells: bovine thymus (tissue preparation)
T1 sequence (Q28037 1-426): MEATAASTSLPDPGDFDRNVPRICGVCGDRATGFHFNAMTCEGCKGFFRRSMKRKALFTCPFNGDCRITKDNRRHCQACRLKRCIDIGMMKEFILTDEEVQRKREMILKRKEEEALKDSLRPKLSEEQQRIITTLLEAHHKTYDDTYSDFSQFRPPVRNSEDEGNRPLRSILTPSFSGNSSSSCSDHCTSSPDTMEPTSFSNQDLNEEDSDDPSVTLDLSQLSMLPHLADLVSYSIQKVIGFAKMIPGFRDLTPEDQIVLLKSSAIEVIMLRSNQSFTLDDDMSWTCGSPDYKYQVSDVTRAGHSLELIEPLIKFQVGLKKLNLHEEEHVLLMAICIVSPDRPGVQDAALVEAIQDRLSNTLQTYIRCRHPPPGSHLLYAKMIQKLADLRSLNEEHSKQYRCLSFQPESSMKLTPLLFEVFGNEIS
Experimental: Test example 1: Assay for binding to vitamin D receptor (VDR)
Bovine thymus 1α,25-dihydroxy vitamin D3 receptor was purchased from YAMASA BIOCHEMICAL (Choshi, Chiba, Japan) and dissolved in 0.05 M phosphate buffer (pH 7.4) containing 0.3M KCl and 5mM dithiothreitol just before use. Aliquots (500 µl, 0.23 mg protein) of the receptor solution and ethanol solutions (50 µl) of 1α,25-dihydroxy vitamin D3 or derivatives (compounds of the present invention) at various concentrations were combined, and pre-incubated at 25°C for 60 minutes. To the resultant receptor mixtures, [^3H]-1α,25-dihydroxy vitamin D3 was added at 0.1 nM, followed by standing overnight at 4°C. The mixtures were treated with dextran coated charcoal for 30 minutes at 4°C to separate the bound arid free forms of [^3H]-1α,25-dihydroxy vitamin D3, and centrifuged at 3000 rpm for ten minutes. Each of the resultant supernatants (500 µl) was mixed with ACS-II (9.5 ml) (AMERSHAM, England) for radioactivity measurement.
The binding property of the compounds of the present invention was expressed in relative values, with that of 1α,25-dihydroxy vitamin D3 taken as 100. (Table 1)

SMILES | Binding property
C=C1/C(=C\C=C2/CCC[C@]3(C)[C@@H]([C@H](C)CCCC(C)(C)O)CC[C@@H]23)C[C@](C)(O)C[C@@H]1O [3-Me-(1α,3α)-dihydroxy vitamin D3] | < 0.1
C=C1/C(=C\C=C2/CCC[C@]3(C)[C@@H]([C@H](C)CCCC(C)(C)O)CC[C@@H]23)C[C@@](C)(O)C[C@@H]1O [3-Me-(1α,3β)-dihydroxy vitamin D3] | 18
C=C1/C(=C\C=C2/CCC[C@]3(C)[C@@H]([C@H](C)CCCC(C)(C)O)CC[C@@H]23)C[C@](C)(O)C[C@H]1O [3-Me-(1β,3α)-dihydroxy vitamin D3, 3-methyl-1β,3α-dihydroxy vitamin D3] | < 0.1
C=C1/C(=C\C=C2/CCC[C@]3(C)[C@@H]([C@H](C)CCCC(C)(C)O)CC[C@@H]23)C[C@@](C)(O)C[C@H]1O [3-Me-(1β,3β)-dihydroxy vitamin D3, 3-methyl-1β,3β-dihydroxy vitamin D3] | < 0.1
